What follows are molecules tested against T1, Hst2 (Saccharomyces cerevisiae, UniProt P53686) (assay: SAR analysis, fluorigenic assay at 50 and 500 μM). Conditions: FIG. 2, 50 μM and 500 μM compound.
Assay type: biochemical
Description: Structure Activity Relationship (SAR) Analysis.

T1 sequence (P53686 1-294): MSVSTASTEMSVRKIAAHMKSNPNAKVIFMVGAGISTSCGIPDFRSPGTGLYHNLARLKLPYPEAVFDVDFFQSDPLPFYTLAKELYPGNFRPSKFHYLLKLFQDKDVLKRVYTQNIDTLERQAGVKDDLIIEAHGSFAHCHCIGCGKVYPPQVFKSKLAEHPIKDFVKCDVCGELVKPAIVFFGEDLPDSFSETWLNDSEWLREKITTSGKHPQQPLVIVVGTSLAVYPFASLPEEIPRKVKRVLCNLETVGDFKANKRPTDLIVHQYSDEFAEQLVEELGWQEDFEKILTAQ

| inhibition of the Hst2 deacetylase reaction by metal ions (in words) | Structure (SMILES) |
| --- | --- |
| are not | [Mg+2] [Mg^2+] |
| are not | [Ca+2] [Ca^2+] |
| inhibitors | [Co+2] [Co^2+] |
| inhibited Hst2 to similar extents | [Fe+2] [Fe^2+] |
| inhibited Hst2 to similar extents | [Cu+] [Cu^1+] |
| inhibitors | [Zn+2] [Zn^2+] |

| Structure (SMILES) | inhibition of the Hst2 deacetylase reaction by metal ions (in words) |
| --- | --- |
| [Hg+2] [Hg^2+] | inhibitors |
| [Ni+2] [Ni^2+] | inhibitors |
| [Cd+2] [Cd^2+] | inhibitors |

What follows are molecules tested against T1, Hst2 (assay: IC50 determination, fluorigenic deacetylase assay, Hst2). Conditions: not given.

| Structure (SMILES) | IC50 |
| --- | --- |
| CC(=O)[O][Cd][O]C(C)=O [Compound 11a, cadmium acetate] | 1 ± 0.2 µM |
| O=c1[nH]c(=S)[nH]c(-c2ccccc2)c1Cc1c(O)ccc2ccccc12 [Cambinol (4), Cambinol, reference compound] | > 1000 µM |

Same assay, conditions: Table 5

| Structure (SMILES) | IC50 values (range in words) |
| --- | --- |
| CC(=O)[O][Cd][O]C(C)=O [Compound 11a, cadmium acetate] | sub-micromolar |

Same assay, conditions: Table 10, Hst2

| IC50 | Structure (SMILES) |
| --- | --- |
| No Inh. | O=C(O)CCCN1C(=O)c2ccccc2C1=O [Compound 427032] |
| No Inh. | CC(C)C(=O)CCN1C(=O)c2ccccc2C1=O [Compound 04265] |
| No Inh. | O=C(O)CCN1C(=O)c2cc(Cl)c(Cl)cc2C1=O [Compound 39008] |
| No Inh. | Nc1ccc2c(c1)C(=O)N(CCC(=O)O)C2 [Compound 42071] |
| No Inh. | C[S+]([O-])CCC(C(=O)O)N1C(=O)c2ccccc2C1=O (stereo not drawn) [Compound 0032] |
| No Inh. | O=C(O)CCN1C(=O)c2ccc(-c3nc4ccccc4c(=O)o3)cc2C1=O [Compound 47054] |

| Structure (SMILES) | IC50 |
| --- | --- |
| O=C1c2ccccc2C(=O)N1CCBr [Compound 91032] | No Inh. |

Same assay, conditions: read-out: Hst2 IC50; Table 5; 160 μM NAD+, 100 μM substrate, 1 μM Hst2, 15 min

| Structure (SMILES) | IC50 |
| --- | --- |
| CN(C)CCCCC(=O)Nc1ccc(NC(=S)NC(=O)c2ccc(C(C)(C)C)cc2)cc1 [Tenovin-6 (5), Tenovin-6, reference compound] | > 600 µM |
| Cn1cc(C2=C(c3cn(CCCSC(=N)N)c4ccccc34)C(=O)NC2=O)c2ccccc21 [Ro 31-8220 (6), Ro 31-8220, reference compound] | 20 ± 0.9 µM |
| CC(NC(=O)c1ccccc1/N=C/c1c(O)ccc2ccccc12)c1ccccc1 (stereo not drawn) [Sirtinol (2), Sirtinol, reference compound] | 48 ± 11 µM |
| Cc1ccc(C(=O)Nc2ccc(S(=O)(=O)O)c3cc(S(=O)(=O)O)cc(S(=O)(=O)O)c23)cc1NC(=O)c1cccc(NC(=O)Nc2cccc(C(=O)Nc3cc(C(=O)Nc4ccc(S(=O)(=O)O)c5cc(S(=O)(=O)O)cc(S(=O)(=O)O)c45)ccc3C)c2)c1 [Suramin (8), Suramin, reference compound] | 240 ± 70 µM |
| O=C1CCc2c(ccc3ccccc23)O1 [Splitomycin (3), Splitomycin, reference compound] | > 600 µM |

From patent publication US20090326007A1, “Compounds and methods for modulating sir2 protein activity” (priority 2007, published 2009)
